Assay results: US11203613B2, “Peptidomimetic proteasome inhibitors” (CORNELL UNIVERSITY, priority 2017, dated 2021)
Several values for one entry are separate records, joined by “and”; a condition that tells them apart may be missing. Equal entries are not always repeated.

Target: Human Constitutive (Hu C-20S) β5 Active Subunit (Homo sapiens, UniProt P28074)
Test: IC50 determination, human constitutive 20S proteasome β5c (suc-LLVY-AMC hydrolysis)
Assay type: biochemical
Conditions: Table 2; several values in a cell are repeat determinations; read-out: Hu c-20S IC50

In the case of `CC[C@H]1CCCCN1C(=O)C[C@H](NC(=O)CCC(C)(C)C)C(=O)N[C@@H](C)c1nc2ccccc2[nH]1` [CF-503217], the IC50 is reported as 6.85 µM and 8.99 µM.

Same assay, conditions: Table 3; IC50 against human constitutive β5 active subunit; read-out: Hu-C20S β5

`CC(C)CCC(=O)N[C@@H](CC(=O)N1CCCCC1)C(=O)N[C@@H](C)c1ncc(-c2ccc(F)cc2F)[nH]1` [CEN-84, N—((S)-1-(((S)-1-(5-(2,4-Difluorophenyl)-1H-imidazol-2-yl)ethyl)amino)-1,4-dioxo-4-(piperidin-1-yl)butan-2-yl)-4-methylpentanamide] and `CC(C)CCC(=O)N[C@@H](CC(=O)N1CCCCCC1)C(=O)N[C@@H](C)c1ncc(-c2ccc(F)cc2F)[nH]1` [CEN-90, N—((S)-4-(Azepan-1-yl)-1-(((S)-1-(5-(2,4-difluorophenyl)-1H-imidazol-2-yl)ethyl)amino)-1,4-dioxobutan-2-yl)-4-methylpentanamide] are within 1.5-fold of each other in IC50: 7.3 µM for the first, 10.2 µM for the second.

`CC[C@H]1CCCCN1C(=O)C[C@H](NC(=O)N1CCCCC1)C(=O)N[C@@H](C)c1nc2c(F)cccc2[nH]1` [CEN-12, N—((S)-4-((S)-2-Ethylpiperidin-1-yl)-1-(((S)-1-(4-fluoro-1H-benzo[d]imidazol-2-yl)ethyl)amino)-1,4-dioxobutan-2-yl)piperidine-1-carboxamide] and `CC[C@H]1CCCCN1C(=O)C[C@H](NC(=O)CC(F)(F)F)C(=O)N[C@@H](C)c1nc2c(F)cccc2[nH]1` [CEN-7, (S)-4-((S)-2-Ethylpiperidin-1-yl)-N—((S)-1-(4-fluoro-1H-benzo[d]imidazol-2-yl)ethyl)-4-oxo-2-(3,3,3-trifluoropropanamido)butanamide] are within 1.5-fold of each other in IC50: 3 µM for the first, 4.2 µM for the second.

Compared with `C[C@H](NC(=O)[C@H](CC(=O)N1CCCC[C@@H]1C)NC(=O)CCC(C)(C)C)c1ncc(-c2ccc(F)cc2F)[nH]1` [CEN-99, N—((S)-1-(((S)-1-(5-(2,4-Difluorophenyl)-1H-imidazol-2-yl)ethyl)amino)-4-((S)-2-methylpiperidin-1-yl)-1,4-dioxobutan-2-yl)-4,4-dimethylpentanamide], `CC(C)CCC(=O)N[C@@H](CC(=O)N1CCCCC1C(C)C)C(=O)N[C@@H](C)c1ncc(-c2ccc(F)cc2F)[nH]1` (stereo partly drawn) [CEN-107, N-((2S)-1-(((S)-1-(5-(2,4-Difluorophenyl)-1H-imidazol-2-yl)ethyl)amino)-4-(2-isopropylpiperidin-1-yl)-1,4-dioxobutan-2-yl)-4-methylpentanamide] is 3-fold lower in IC50: 8.5 µM for the first, 2.8 µM for the second. The second is the more potent here.

First: C[C@H](NC(=O)[C@H](CC(=O)N1CCCC[C@@H]1C)NC(=O)C1CC2(C1)CC(F)(F)C2)c1nc2c(F)cccc2[nH]1 [CEN-57, 6,6-Difluoro-N—((S)-1-(((S)-1-(4-fluoro-1H-benzo[d]imidazol-2-yl)ethyl)amino)-4-((S)-2-methylpiperidin-1-yl)-1,4-dioxobutan-2-yl)spiro[3.3]heptane-2-carboxamide]
Second: C[C@H](NC(=O)[C@H](CC(=O)N1CCCC[C@@H]1C)NC(=O)C1CCC1)c1ncc(-c2ccc(F)cc2F)[nH]1 [CEN-82, N—((S)-1-(((S)-1-(5-(2,4-Difluorophenyl)-1H-imidazol-2-yl)ethyl)amino)-4-((S)-2-methylpiperidin-1-yl)-1,4-dioxobutan-2-yl)cyclobutanecarboxamide]
The IC50 of the first is 12-fold higher: 28 µM for the first, 2.4 µM for the second. The second is the more potent here.

First: CC(C)CCS(=O)(=O)N[C@@H](CC(=O)N1CCC[C@@H]1c1ccccc1)C(=O)N[C@@H](C)c1nc2ccccc2[nH]1 [CEN-59, (S)—N—((S)-1-(1H-Benzo[d]imidazol-2-yl)ethyl)-2-((3-methylbutyl)sulfonamido)-4-oxo-4-((R)-2-phenylpyrrolidin-1-yl)butanamide]
Second: CC(C)CCC(=O)N[C@@H](CC(=O)N1CCCC[C@@H]1C)C(=O)N[C@H](C)c1nc2ccccc2[nH]1 [CEN-34, N—((S)-1-(((R)-1-(1H-Benzo[d]imidazol-2-yl)ethyl)amino)-4-((S)-2-methylpiperidin-1-yl)-1,4-dioxobutan-2-yl)-4-methylpentanamide]
The IC50 of the first is 1.6-fold lower: 10 µM for the first, 15.6 µM for the second. The first is the more potent here.

`CC(C)CCC(=O)N[C@@H](CC(=O)N1CCCC[C@@H]1C)C(=O)NCc1nc2ccccc2[nH]1` [CEN-31, N—((S)-1-(((1H-Benzo[d]imidazol-2-yl)methyl)amino)-4-((S)-2-methylpiperidin-1-yl)-1,4-dioxobutan-2-yl)-4-methylpentanamide] and `CC[C@H]1CCCCN1C(=O)C[C@H](NC(=O)CCC(C)C)C(=O)N[C@@H](C)c1nc2ccccc2[nH]1` [CEN-28, N—((S)-1-(((S)-1-(1H-Benzo[d]imidazol-2-yl)ethyl)amino)-4-((S)-2-ethylpiperidin-1-yl)-1,4-dioxobutan-2-yl)-4-methylpentanamide] are within 1.5-fold of each other in IC50: 17.6 µM for the first, 14.8 µM for the second.

`Cc1cc(C(=O)N[C@@H](CC(=O)N2CCC[C@@H]2c2ccccc2)C(=O)N[C@@H](C)c2ncc(-c3ccccc3)[nH]2)no1` [CEN-120, N—((S)-1,4-Dioxo-1-(((S)-1-(5-phenyl-1H-imidazol-2-yl)ethyl)amino)-4-((R)-2-phenylpyrrolidin-1-yl)butan-2-yl)-5-methylisoxazole-3-carboxamide] and `Cc1cc(C(=O)N[C@@H](CC(=O)N2CCC[C@@H]2c2ccccc2)C(=O)N[C@@H](C)c2ncc(-c3ccccc3F)[nH]2)no1` [CEN-75, N—((S)-1-(((S)-1-(5-(2-Fluorophenyl)-1H-imidazol-2-yl)ethyl)amino)-1,4-dioxo-4-((R)-2-phenylpyrrolidin-1-yl)butan-2-yl)-5-methylisoxazole-3-carboxamide] cannot be ordered by IC50: over 100 µM for the first, over 100 µM for the second.

Going from `C[C@H](NC(=O)[C@H](CC(=O)N1CCCC[C@@H]1C)NS(=O)(=O)Cc1ccccc1)c1ncc(-c2ccc(F)cc2F)[nH]1` [CEN-112, (S)—N—((S)-1-(5-(2,4-Difluorophenyl)-1H-imidazol-2-yl)ethyl)-4-((S)-2-methylpiperidin-1-yl)-4-oxo-2-((phenylmethyl)sulfonamido)butanamide] to `CCS(=O)(=O)N[C@@H](CC(=O)N1CCCC[C@@H]1C)C(=O)N[C@@H](C)c1ncc(-c2ccc(F)cc2F)[nH]1` [CEN-86, (S)—N—((S)-1-(5-(2,4-Difluorophenyl)-1H-imidazol-2-yl)ethyl)-2-(ethylsulfonamido)-4-((S)-2-methylpiperidin-1-yl)-4-oxobutanamide], the IC50 rises from 6.1 µM to 28.2 µM (4.6-fold). The first is the more potent here.

`Cc1ccc(S(=O)(=O)N[C@@H](CC(=O)N2CCCC[C@@H]2C)C(=O)N[C@@H](C)c2ncc(-c3ccc(F)cc3F)[nH]2)cc1` [CEN-113, (S)—N—((S)-1-(5-(2,4-Difluorophenyl)-1H-imidazol-2-yl)ethyl)-2-((4-methylphenyl)sulfonamido)-4-((S)-2-methylpiperidin-1-yl)-4-oxobutanamide] and `Cc1cc(C(=O)N[C@@H](CC(=O)N2CCCC[C@@H]2C)C(=O)N[C@@H](C)c2ncc(-c3ccc(F)cc3F)[nH]2)no1` [CEN-94, N—((S)-1-(((S)-1-(5-(2,4-Difluorophenyl)-1H-imidazol-2-yl)ethyl)amino)-4-((S)-2-methylpiperidin-1-yl)-1,4-dioxobutan-2-yl)-5-methylisoxazole-3-carboxamide] are within 1.5-fold of each other in IC50: 6.5 µM for the first, 5.5 µM for the second.

Going from `C[C@H](NC(=O)[C@@H](N)CC(=O)N1CCCC[C@@H]1C)c1ncc(-c2ccc(F)cc2F)[nH]1` [CEN-76, (S)-2-Amino-N—((S)-1-(5-(2,4-difluorophenyl)-1H-imidazol-2-yl)ethyl)-4-((S)-2-methylpiperidin-1-yl)-4-oxobutanamide] to `CC(C)C1CC1C(=O)N[C@@H](CC(=O)N1CCCC[C@@H]1C)C(=O)N[C@@H](C)c1ncc(-c2ccc(F)cc2F)[nH]1` (stereo partly drawn) [CEN-97, N—((S)-1-(((S)-1-(5-(2,4-Difluorophenyl)-1H-imidazol-2-yl)ethyl)amino)-4-((S)-2-methylpiperidin-1-yl)-1,4-dioxobutan-2-yl)-2-isopropylcyclopropane-1-carboxamide], the IC50 falls from 14.2 µM to 4.8 µM (3-fold).

`CC[C@H]1CCCCN1C(=O)C[C@H](NC(=O)[C@H]1C[C@@H]1c1ccccc1)C(=O)N[C@@H](C)c1nc2c(F)cccc2[nH]1` [CEN-25, (1S,2S)—N—((S)-4-((S)-2-Ethylpiperidin-1-yl)-1-(((S)-1-(4-fluoro-1H-benzo[d]imidazol-2-yl)ethyl)amino)-1,4-dioxobutan-2-yl)-2-phenylcyclopropane-1-carboxamide] and `CC[C@H]1CCCCN1C(=O)C[C@H](NC(=O)c1cc(C)on1)C(=O)N[C@@H](C)c1nc2c(F)cccc2[nH]1` [CEN-6, N—((S)-4-((S)-2-Ethylpiperidin-1-yl)-1-(((S)-1-(4-fluoro-1H-benzo[d]imidazol-2-yl)ethyl)amino)-1,4-dioxobutan-2-yl)-5-methylisoxazole-3-carboxamide] are within 1.5-fold of each other in IC50: 8.1 µM for the first, 7.1 µM for the second.

First: C[C@H](NC(=O)[C@H](CC(=O)N1CCC[C@@H]1c1ccccc1)Nc1nc2ccccc2o1)c1ncc(-c2ccccc2F)[nH]1 [CEN-125, (S)-2-(benzo[d]oxazol-2-ylamino)-N—((S)-1-(5-(2-fluorophenyl)-1H-imidazol-2-yl)ethyl)-4-oxo-4-((R)-2-phenylpyrrolidin-1-yl)butanamide]
Second: C[C@H](NC(=O)[C@H](CC(=O)N1CCC[C@@H]1c1ccccc1)NC(=O)CC1CC1)c1ncc(Cc2ccccc2)[nH]1 [CEN-121, (S)—N—((S)-1-(5-Benzyl-1H-imidazol-2-yl)ethyl)-2-(2-cyclopropylacetamido)-4-oxo-4-((R)-2-phenylpyrrolidin-1-yl)butanamide]
The IC50 of the first is 1.9-fold higher: 20.6 µM for the first, 10.6 µM for the second. The second is the more potent here.

`Cc1ccc(S(=O)(=O)N[C@H](C(=O)N[C@@H](C)c2nc3cccc(F)c3[nH]2)[C@@H](C)O)cc1` [CEN-71, (2S,3R)—N—((S)-1-(7-Fluoro-1H-benzo[d]imidazol-2-yl)ethyl)-3-hydroxy-2-((4-methylphenyl)sulfonamido)butanamide] and `Cc1ccc(S(=O)(=O)N[C@@H](CCC(=O)NC(C)(C)C)C(=O)NC2(c3nc4c(F)cccc4[nH]3)CC2)cc1` [CEN-70, (S)—N^5-(tert-Butyl)-N^1-(1-(4-fluoro-1H-benzo[d]Imidazol-2-yl)cyclopropyl)-2-((4-methylphenyl)sulfonamido)pentanediamide] cannot be ordered by IC50: over 100 µM for the first, over 100 µM for the second.

Work on `CC[C@H]1CCCCN1C(=O)C[C@H](NC(=O)CCC(C)C)C(=O)N[C@@H](C)c1ncc(-c2ccc(F)cc2F)[nH]1` [CEN-100, N—((S)-1-(((S)-1-(5-(2,4-Difluorophenyl)-1H-imidazol-2-yl)ethyl)amino)-4-((S)-2-ethylpiperidin-1-yl)-1,4-dioxobutan-2-yl)-4-methylpentanamide] yielded an IC50 of 4.4 µM.
